Measured values published in patent US8846668B2, “Inhibitors of 11beta-hydroxysteroid dehydrogenase 1” (Vitae Pharmaceuticals, Inc., priority 2008, dated 2014).

Molecular target: T1, 11β-HSD1 (human liver microsomes) (Homo sapiens, UniProt P28845)
T1 construct: detecting cortisol generated from cortisterone by human liver microsomes; from tissue; host or cells: human liver microsomes
Experiment: In vitro inhibition of 11β-HSD1, HTRF detection of cortisol generated by human liver microsomes
Type: biochemical
Details: 100 nM inhibitor, 100% indicates no inhibition, zero or below zero indicates complete inhibition, 1 hour at 37° C., read-out: Average % control inhibition at 100 nM
Procedure: Briefly, compounds were incubated for 1 hour at 37° C. in Tris buffer (20 mM tris, 5 mM EDTA, pH 6.0) containing NADPH (200 μM) and cortisone (80 nM). Cortisol generated in the reaction is then detected with a competitive immunoassay, involving two HTRF conjugates: cortisol linked to XL665 and anti-cortisol antibody labeled with Europium cryptate. The incubation period for detection reaction was typically 2 hours. […] The ratio of the two emission signals is then calculated (Em665*10000/Em615). […] Each assay also contained a calibration curve with cortisol to transform the fluorescent data into cortisol concentrations. Percent inhibition of each compound was determined relative to the carbenoxolone signal.

T1 sequence (P28845 whole entry): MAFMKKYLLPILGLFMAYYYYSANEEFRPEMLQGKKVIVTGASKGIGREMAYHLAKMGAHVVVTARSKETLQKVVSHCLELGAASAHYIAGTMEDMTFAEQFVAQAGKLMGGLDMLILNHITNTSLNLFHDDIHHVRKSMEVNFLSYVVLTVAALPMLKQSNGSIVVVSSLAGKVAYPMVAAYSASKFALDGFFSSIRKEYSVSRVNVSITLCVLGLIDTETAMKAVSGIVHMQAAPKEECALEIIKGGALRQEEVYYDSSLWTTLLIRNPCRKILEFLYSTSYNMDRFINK

First: CCNC(=O)c1ccc(-c2ccc([C@H](C)N3CC[C@](CC(C)(C)O)(c4ccccc4)OC3=O)cc2)cn1 [Example 15, 5-(4-{(S)-1-[(S)-6-(2-Hydroxy-2-methyl-propyl)-2-oxo-6-phenyl-[1,3]oxazinan-3-yl]-ethyl}-phenyl)-pyridine-2-carboxylic acid ethylamide]
Second: CNC(=O)c1ccc(-c2ccc([C@H](C)N3CC[C@](CC(C)(C)O)(c4ccccc4)OC3=O)cc2)cn1 [Example 16, 5-(4-{(S)-1-[(S)-6-(2-Hydroxy-2-methyl-propyl)-2-oxo-6-phenyl-[1,3]oxazinan-3-yl]-ethyl}-phenyl)-pyridine-2-carboxylic acid methylamide]
The remaining activity at 0.1 µM of the first is lower: -34% for the first, -24% for the second.

Compared with `C[C@@H](c1ccc(-c2ccc(C(=O)N(C)C)nc2)cc1)N1CC[C@](CC(C)(C)O)(c2ccccc2)OC1=O` [Example 17, (4-{(S)-1-[(S)-6-(2-Hydroxy-2-methyl-propyl)-2-oxo-6-phenyl-[1,3]oxazinan-3-yl]-ethyl}-phenyl)-pyridine-2-carboxylic acid dimethylamide], `C[C@@H](c1ccc(C2CCN(C(=O)N(C)C)CC2)cc1)N1CC[C@](CC(C)(C)O)(c2ccccc2)OC1=O` [Example 36, 4-((S)-4-{1-[(S)-6-(2-Hydroxy-2-methyl-propyl)-2-oxo-6-phenyl-[1,3]oxazinan-3-yl]-ethyl}-phenyl)-piperidine-1-carboxylic acid dimethylamide] is higher in remaining activity at 0.1 µM: -10% for the first, 31% for the second.

Compared with `C[C@@H](c1ccc(C2CCNCC2)cc1)N1CC[C@](CC(C)(C)O)(c2ccccc2)OC1=O` [Example 18, (S)-6-(2-Hydroxy-2-methyl-propyl)-6-phenyl-3-[(S)-1-(4-piperidin-4-yl-phenyl)-ethyl]-[1,3]oxazinan-2-one], `C[C@@H](c1ccc(C2CCN(C)CC2)cc1)N1CC[C@](CC(C)(C)O)(c2ccccc2)OC1=O` [Example 21, (S)-6-(2-Hydroxy-2-methyl-propyl)-3-{(5)-1-[4-(1-methyl-piperidin-4-yl)-phenyl]-ethyl}-6-phenyl-[1,3]oxazinan-2-one] is higher in remaining activity at 0.1 µM: 93% for the first, 97% for the second.

First: C[C@@H](c1ccc(C2CCN(S(C)(=O)=O)CC2)cc1)N1CC[C@](CC(C)(C)O)(c2ccccc2)OC1=O [Example 22, (S)-6-(2-Hydroxy-2-methyl-propyl)-3-{(S)-1-[4-(1-methanesulfonyl-piperidin-4-yl)-phenyl]-ethyl}-6-phenyl-[1,3]oxazinan-2-one]
Second: CNC(=O)N1CCC(c2ccc([C@H](C)N3CC[C@](CC(C)(C)O)(c4ccccc4)OC3=O)cc2)CC1 [Example 35, 4-(4-{(S)-1-[(S)-6-(2-Hydroxy-2-methyl-propyl)-2-oxo-6-phenyl-[1,3]oxazinan-3-yl]-ethyl}-phenyl)-piperidine-1-carboxylic acid methylamide]
The remaining activity at 0.1 µM of the first is higher: 17% for the first, 1% for the second.

Compared with `C[C@@H](c1ccc(C2CCN(C(=O)[C@@H]3CCCO3)CC2)cc1)N1CC[C@](CC(C)(C)O)(c2ccccc2)OC1=O` [Example 23, (S)-6-(2-Hydroxy-2-methyl-propyl)-6-phenyl-3-((S)-1-{4-[1-((S)-tetrahydro-furan-2-carbonyl)-piperidin-4-yl]-phenyl}-ethyl)-[1,3]oxazinan-2-one], `C[C@@H](c1ccc(C2CCN(C(=O)[C@H]3CCCO3)CC2)cc1)N1CC[C@](CC(C)(C)O)(c2ccccc2)OC1=O` [Example 24, (S)-6-(2-Hydroxy-2-methyl-propyl)-6-phenyl-3-((S)-1-{4-[1-((R)-tetrahydro-furan-2-carbonyl)-piperidin-4-yl]-phenyl}-ethyl)-[1,3]oxazinan-2-one] is higher in remaining activity at 0.1 µM: 44% for the first, 53% for the second.

First: C[C@@H](c1ccc(C2CCN(C(=O)C(C)(C)O)CC2)cc1)N1CC[C@](CC(C)(C)O)(c2ccccc2)OC1=O [Example 25, (S)-6-(2-Hydroxy-2-methyl-propyl)-6-phenyl-3-((S)-1-{4-[1-(2-hydroxy-2-propyl-carbonyl)-piperidin-4-yl]-phenyl}-ethyl)-[1,3]oxazinan-2-one]
Second: C[C@@H](c1ccc(C2CCN(C(=O)[C@@H]3CCCN3C)CC2)cc1)N1CC[C@](CC(C)(C)O)(c2ccccc2)OC1=O [Example 26, (S)-6-(2-Hydroxy-2-methyl-propyl)-3-((S)-1-{4-[1-((S)-1-methyl-pyrrolidine-2-carbonyl)-piperidin-4-yl]-phenyl}-ethyl)-6-phenyl-[1,3]oxazinan-2-one]
The remaining activity at 0.1 µM of the first is lower: 71% for the first, 80% for the second.

`C[C@@H](c1ccc(C2CCN(C(=O)[C@H]3CCCN3C)CC2)cc1)N1CC[C@](CC(C)(C)O)(c2ccccc2)OC1=O` [Example 27, (S)-6-(2-Hydroxy-2-methyl-propyl)-3-((S)-1-{4-[1-((R)-1-methyl-pyrrolidine-2-carbonyl)-piperidin-4-yl]-phenyl}-ethyl)-6-phenyl-[1,3]oxazinan-2-one] showed a remaining activity at 0.1 µM of 86%.

Same assay, conditions: 1 μM inhibitor (footnote *), 100% indicates no inhibition, zero or below zero indicates complete inhibition, read-out: Average % control inhibition (1 μM inhibitor concentration)

Going from `C[C@@H](c1ccc(C2CCN(C)C(=O)C2)cc1)N1CC[C@](CC(C)(C)O)(c2ccccc2)OC1=O` (stereo partly drawn) [Example 33, (S)-6-(2-Hydroxy-2-methyl-propyl)-3-{(S)-1-[4-(1-methyl-2-oxo-piperidin-4-yl)-phenyl]-ethyl}-6-phenyl-[1,3]oxazinan-2-one] to `C[C@@H](c1ccc(C2CCC(=O)N(C)C2)cc1)N1CC[C@](CC(C)(C)O)(c2ccccc2)OC1=O` (stereo partly drawn) [Example 34, (S)-6-(2-Hydroxy-2-methyl-propyl)-3-{(S)-1-[4-(1-methyl-6-oxo-piperidin-3-yl)-phenyl]-ethyl}-6-phenyl-[1,3]oxazinan-2-one], the remaining activity at 1 µM rises from -27% to -17%.

Molecular target: T2, human 11β-HSD1 (microsomes isolated from CHO cells overexpressing human 11β-HSD1) (Homo sapiens, UniProt P28845)
T2 construct: expressed in transfected cells; host or cells: CHO cells (microsomes)
Experiment: Inhibition of a microsomal preparation of 11β-HSD1, scintillation proximity assay
Type: biochemical
Details: microsomes from CHO cells overexpressing human 11β-HSD1; [3H]cortisone, SPA, 90 minutes at rt
Procedure: All reactions were carried out at rt in 96 well clear flexible PET Microbeta plates (PerkinElmer). […] After a 10 minute pre-incubation, 50 μL of enzyme solution containing microsomes isolated from CHO cells overexpressing human 11β-HSD1 (10-20 μg/ml of total protein) was added, and the plates were incubated for 90 minutes at rt. […] The plates were shaken for 120 minutes at rt, and the SPA signal corresponding to [^3H]cortisol was measured on a Microbeta plate reader.

T2 sequence (P28845 whole entry): as above

`Cc1nc2cc(-c3ccc([C@H](C)N4CCC(CC(C)(C)O)(C(C)C)OC4=O)cc3)ccc2n1C` (single isomer, unassigned) [Example 37] and `CC(C)C1(CC(C)(C)O)CCN([C@@H](C)c2ccc(-c3ccc4c(c3)ncn4C)cc2)C(=O)O1` (stereo partly drawn) [Example 38, 6-(2-hydroxy-2-methylpropyl)-6-isopropyl-3-{(S)-1-[4-(1-methyl-1H-benzo[d]imidazol-5-yl)phenyl]ethyl}-1,3-oxazinan-2-one] are within 1.5-fold of each other in IC50: 6.9 nM for the first, 7.7 nM for the second.
